Read-outs that look alike come from different tables or passages of the source. Blank lines part the entries; values can stand above or below the molecule they belong to.
Columns and labels:
[1] = target: T1, N-myristoyltransferase 1 (NMT1) (Homo sapiens, UniProt P30419); assay: steady-state kinetics with ARF6 peptide (HPLC, MS); Kia from ordered Bi-Bi global fit; type: biochemical
T1 sequence (P30419 1-496): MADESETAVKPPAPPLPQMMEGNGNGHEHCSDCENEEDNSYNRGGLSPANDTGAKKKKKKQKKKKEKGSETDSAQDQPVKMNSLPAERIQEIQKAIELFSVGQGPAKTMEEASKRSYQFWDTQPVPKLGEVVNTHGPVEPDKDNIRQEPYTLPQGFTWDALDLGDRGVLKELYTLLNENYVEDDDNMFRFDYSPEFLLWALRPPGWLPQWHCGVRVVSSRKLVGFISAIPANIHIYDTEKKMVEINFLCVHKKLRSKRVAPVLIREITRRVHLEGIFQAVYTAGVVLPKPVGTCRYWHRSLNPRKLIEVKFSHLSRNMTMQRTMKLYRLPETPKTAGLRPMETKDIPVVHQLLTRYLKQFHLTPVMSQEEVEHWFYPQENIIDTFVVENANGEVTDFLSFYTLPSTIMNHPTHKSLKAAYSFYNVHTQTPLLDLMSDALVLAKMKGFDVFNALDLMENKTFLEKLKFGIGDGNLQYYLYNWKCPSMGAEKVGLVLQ

[2] = target: T1, N-myristoyltransferase 1 (NMT1); assay: steady-state inhibition kinetics of acetylation of ARF6 peptide (HPLC), recombinant NMT1; type: biochemical
[3] = target: T1, N-myristoyltransferase 1 (NMT1); assay: steady-state inhibition kinetics of myristoylation of ARF6 peptide (HPLC), recombinant NMT1; type: biochemical
[4] = target: T2, human N-myristoyltransferase 1 (NMT1) (human) (UniProt P30419)
T2 sequence: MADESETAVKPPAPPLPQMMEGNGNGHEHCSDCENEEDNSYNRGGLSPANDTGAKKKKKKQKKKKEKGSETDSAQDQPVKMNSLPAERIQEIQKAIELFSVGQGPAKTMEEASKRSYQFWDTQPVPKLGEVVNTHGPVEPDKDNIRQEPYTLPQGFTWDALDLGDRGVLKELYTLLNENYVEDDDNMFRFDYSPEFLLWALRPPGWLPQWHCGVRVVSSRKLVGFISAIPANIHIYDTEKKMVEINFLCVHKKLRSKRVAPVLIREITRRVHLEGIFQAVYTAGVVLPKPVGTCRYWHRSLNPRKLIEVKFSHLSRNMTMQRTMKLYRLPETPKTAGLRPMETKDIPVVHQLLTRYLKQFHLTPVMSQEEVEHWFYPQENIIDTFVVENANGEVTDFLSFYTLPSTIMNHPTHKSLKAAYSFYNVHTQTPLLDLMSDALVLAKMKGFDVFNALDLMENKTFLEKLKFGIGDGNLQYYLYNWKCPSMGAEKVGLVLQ

Molecule: CCCCCCCCCCCCCC(=O)SCCNC(=O)CCNC(=O)[C@H](O)C(C)(C)COP(=O)(O)OP(=O)(O)OC[C@H]1O[C@@H](n2cnc3c(N)ncnc32)[C@H](O)[C@@H]1OP(=O)(O)O [Myr-CoA, myristoyl-CoA]
Kd [1]: 200 ± 100 nM

Molecule: CC(=O)CSCCNC(=O)CCNC(=O)[C@H](O)C(C)(C)COP(=O)(O)OP(=O)(O)OC[C@H]1O[C@@H](n2cnc3c(N)ncnc32)[C@H](O)[C@@H]1OP(=O)(O)O [S-acetonyl-CoA]
Ki [2]: 10100 ± 2200 nM

Molecule: CCCCCCCCCCCCCC(=O)CSCCNC(=O)CCNC(=O)[C@H](O)C(C)(C)COP(=O)(O)OP(=O)(O)OC[C@H]1O[C@@H](n2cnc3c(N)ncnc32)[C@H](O)[C@@H]1OP(=O)(O)O [S-(2-oxo)pentadecyl-CoA]
Ki [3]: 14.7 ± 2.2 nM

Further lines, results first:

Kd ([1]; read-out: Kia): 2400 ± 500 nM
Molecule: CC(=O)SCCNC(=O)CCNC(=O)[C@H](O)C(C)(C)COP(=O)(O)OP(=O)(O)OC[C@H]1O[C@@H](n2cnc3c(N)ncnc32)[C@H](O)[C@@H]1OP(=O)(O)O [Ac-CoA, acetyl-CoA]

Kpep (Michaelis constant Km for ARF6 peptide) of NMT1-catalysed acetylation, Ac-CoA as the first substrate; 50 mM TriCl pH 8.0, 37 °C [4]: 40 μM
Kpep (Michaelis constant Km for ARF6 peptide) of NMT1-catalysed myristoylation, Myr-CoA as the first substrate; 50 mM TriCl pH 8.0, 37 °C [4]: 5 μM
B1: ARF6 N-terminal peptide (…) (peptide)
peptide: GKVLSKIFWW

From article PMC8689648, “Binding Affinity Determines Substrate Specificity and Enables Discovery of Substrates for N-Myristoyltransferases” (ACS Catalysis, 2021)
